The source made the active and inactive calls. No cut-off for these calls is given here.
Tests used:
A-375 [1] = assay: Cell cycle arrest in human A375 cells assessed as accumulation at G2-M phase at 20 uM after 48 hrs by FACS flow cytometric analysis (reference value: 17.3%); assay type: functional
A-375 [2] = assay: Cell cycle arrest in human A375 cells assessed as accumulation at S phase at 10 uM after 48 hrs by FACS flow cytometric analysis (reference value: 25.1%); assay type: functional
[3] = molecular target: Casein kinase I/MDM2 (Homo sapiens) (UniProt Q00987+P48729); assay: Inhibition of CK1-MDM2 complex in human A375 cells assessed as effect on p53 protein level at 0.2 to 80 uM after 48 hrs by immunoblotting analysis; assay type: cell-based; conditions: A-375
Casein kinase I/MDM2 (Homo sapiens), sequence (P48729 whole entry, looked up): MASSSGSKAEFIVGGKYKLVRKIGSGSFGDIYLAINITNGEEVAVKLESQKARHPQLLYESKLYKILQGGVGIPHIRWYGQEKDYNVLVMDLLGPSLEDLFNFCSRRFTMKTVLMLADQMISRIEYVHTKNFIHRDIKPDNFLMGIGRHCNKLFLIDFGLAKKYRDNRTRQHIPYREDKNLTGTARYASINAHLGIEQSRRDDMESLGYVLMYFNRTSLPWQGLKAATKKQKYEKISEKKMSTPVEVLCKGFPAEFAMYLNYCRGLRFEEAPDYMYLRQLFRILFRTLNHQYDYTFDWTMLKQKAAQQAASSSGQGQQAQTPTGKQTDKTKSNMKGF
Casein kinase I/MDM2 (Homo sapiens), sequence (Q00987 whole entry, looked up): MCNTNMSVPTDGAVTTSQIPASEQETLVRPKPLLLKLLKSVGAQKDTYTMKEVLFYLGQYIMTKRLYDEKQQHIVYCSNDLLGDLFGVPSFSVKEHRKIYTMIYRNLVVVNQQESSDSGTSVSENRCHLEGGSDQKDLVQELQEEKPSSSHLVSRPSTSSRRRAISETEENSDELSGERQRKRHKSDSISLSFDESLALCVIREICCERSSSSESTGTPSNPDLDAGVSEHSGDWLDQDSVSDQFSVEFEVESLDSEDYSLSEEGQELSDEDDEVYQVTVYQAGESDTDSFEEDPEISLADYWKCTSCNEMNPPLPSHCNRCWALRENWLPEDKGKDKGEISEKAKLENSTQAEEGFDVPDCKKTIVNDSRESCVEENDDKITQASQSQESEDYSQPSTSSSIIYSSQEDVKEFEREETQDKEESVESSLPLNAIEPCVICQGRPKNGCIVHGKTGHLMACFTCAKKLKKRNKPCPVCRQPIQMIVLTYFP

inhibition [3] | SMILES | Activity (A-375 [1]) | Activity (A-375 [2])
 | CC(=O)Nc1cccc(-c2cnc3[nH]nc(C)c3c2)c1 | 9.65% | 12.6%
inactive | CC(=O)Nc1nccc(-c2c(-c3ccccc3)noc2C)n1 |  | 

— ChEMBL document CHEMBL2429821, “A Casein kinase 1/Checkpoint kinase 1 pyrazolo-pyridine protein kinase inhibitor as novel activator of the p53 pathway” (Bioorg Med Chem Lett, 2013)
